In PMC10988762, “Inhibition of malaria and babesiosis parasites by putative red blood cell targeting small molecules” (Frontiers in Cellular and Infection Microbiology, 2024):
Read-outs that look alike come from different tables or passages of the source.

What was measured:
P. falciparum strain Dd2 = assay: Inhibitor susceptibility dose-response assay (SYBR-Green I), P. falciparum Dd2; format: cell-based, Plasmodium falciparum; conditions: read-out: IC50 (S.D.), P. falciparum-Dd2
Description: (§1) The P. falciparum strains 3D7 and Dd2 were obtained from the Walter and Eliza Hall Institute (Melbourne, Australia) and the Malaria Research and Reference Reagent Resource, respectively. […] B. divergens parasites were maintained and assayed in mixed stages without synchronization.
(§2) Ring-stage P. falciparum (1%-parasitemia starting, 1%-hematocrit) and asynchronous B.divergens (0.5%-parasitemia starting, 3%-hematocrit) were incubated with plated compounds for 72h, and ring-stage P. knowlesi (1%-parasitemia starting, 1%-hematocrit) for 48h, before lysis and staining with dye. To quantify the species-specificity of the inhibitors, we divided the range of IC50s across the 4 test lines by the average IC50 across the same lines: inhibitors with increased scores show species-specific activity and reduced scores indicate broad-spectrum, pan-species activity.

[1] = system: BdC9 line of B. divergens; assay: Inhibitor susceptibility dose-response assay (SYBR-Green I), B. divergens; format: cell-based, Babesia divergens; conditions: for IC50: read-out: IC50 (S.D.), B. divergens
Description: as §1, §2

P. knowlesi YH1 strain = assay: microbe, parasite or virus in culture; format: cell-based, Plasmodium knowlesi; conditions: read-out: IC50 (S.D.), P. knowlesi
Description: as §1, §2

P. falciparum strain 3D7 = assay: Inhibitor susceptibility dose-response assay (SYBR-Green I), P. falciparum 3D7; format: cell-based, Plasmodium falciparum; conditions: read-out: IC50 (S.D.), P. falciparum-3D7
Description: as §1, §2

uninfected RBCs [2] = system: uninfected RBCs
Description: (§3) We analyzed samples using a volumetric MACSQuant Analyzer Flow Cytometer (Miltenyi Biotec), manually resuspending each row immediately prior to sample uptake. We recorded 10,000 total events for each condition at the instrument-defined low flow rate. We assessed all compounds in 2 separate experiments with blood from different donors. […] All samples were gated for single cell events.

uninfected RBCs [3] = assay: Cellular phosphatidylserine exposure assay (annexin V flow cytometry);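 note: flow cytometry recording 10,000 events per condition, gated on single cells, with the two experiments using blood from separate donors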
Description: as §3

AQP3 = system: AQP3; parameters: method as in PMID 22624030; conditions: RBC assay: AQP3 glycerol conductance ref PMID 22624030; read-out: Micromolar IC50 (RBC), AQP3 glycerol conductance; cited from earlier work
in vitro = conditions: human
Description: as §3

[4] = system: breast cancer cell line panel; parameters: method as in PMID 21159648; conditions: cellular proliferation ref PMID 21159648; read-out: Micromolar IC50 (breast cancer cell line panel); cited from earlier work
[5] = system: AP-1 transcription factor activation; parameters: method as in PMID 17175522; conditions: ref PMID 17175522; read-out: Micromolar IC50 (AP-1 transcription factor activation); cited from earlier work
[6] = system: serum- or growth factor induced fibroblasts; parameters: method as in PMID 8519682; conditions: cellular proliferation ref PMID 8519682; read-out: Micromolar IC50 (serum- or growth factor induced fibroblasts); cited from earlier work
[7] = 72h, ring-stage, n=3 experiments (or 2 where indicated with *)
[8] = 5x P. falciparum 3D7-IC50, 24, 48, 72h
[9] = 24h, 5x P. falciparum 3D7-IC50, % of RBCs, mean of 2 experiments
[10] = 48h, 5x P. falciparum 3D7-IC50, % of RBCs, mean of 2 experiments
[11] = uninfected RBCs (red blood cells), 1% hematocrit
[12] = Plasmodium falciparum, DD2, 72 h
[13] = Plasmodium falciparum, 3D7, 72 h

Row | SMILES | Phosphatidylserine exposure (%) 72h (uninfected RBCs [3]) [%] | IC50 (P. knowlesi YH1 strain; Plasmodium knowlesi, 48 h) [nM] | Phosphatidylserine exposure (%) 24h (uninfected RBCs [3]; [9]) [%] | Phosphatidylserine exposure (%) 48h (uninfected RBCs [3]; [10]) [%] | hemolysis at 24 h, 5 x P. falciparum 3D7-IC50 (in vitro; [11]) [%] | hemolysis at 48 h, 5 x P. falciparum 3D7-IC50 (in vitro; [11]) [%] | hemolysis at 72 h, 5 x P. falciparum 3D7-IC50 (in vitro; [11]) [%] | IC50 (P. falciparum strain Dd2; [12]) [nM] | IC50 ([1]; Babesia divergens, 72 h) [nM] | IC50 (P. falciparum strain 3D7; [13]) [nM] | other results
1 | [Cl][Au]([Cl])[Cl].c1cnc2c(c1)ccc1cccnc12 [Auphen] | 24 | – | – | – | – | – | – | – | – | – | IC50 (P. falciparum strain Dd2; [7]): 610 nM; IC50 ([1]; 72h, asynchronous, n=3 experiments (or 2 where indicated with *)): 2800 nM; IC50 (P. knowlesi YH1 strain; 48h, ring-stage, n=3 experiments (or 2 where indicated with *)): 2000 nM; IC50 (P. falciparum strain 3D7; [7]): 1100 nM; Hemolysis (%) 24h (uninfected RBCs [2]): -7%; Hemolysis (%) 48h (uninfected RBCs [2]): 5%; Hemolysis (%) 72h (uninfected RBCs [2]): 10. %; Phosphatidylserine exposure (%) 24h (uninfected RBCs [3]): 3%; Phosphatidylserine exposure (%) 48h (uninfected RBCs [3]): 10. %; IC50 (AQP3): 800 nM
2 | O=C(O)c1ccc2c(c1)nc(Nc1cccc(Cl)c1)c1ccncc12 [CX-4945] | 3 | 9000 | 2 | 2 | – | – | – | – | – | – | hemolysis at 24 h, 5 x P. falciparum 3D7-IC50 (in vitro): -4%; hemolysis at 48 h, 5 x P. falciparum 3D7-IC50 (in vitro): -1%; hemolysis at 72 h, 5 x P. falciparum 3D7-IC50 (in vitro): 16%; IC50 (P. falciparum strain Dd2; Plasmodium falciparum, DD2, 72h, ring-stage, n=3 experiments (or 2 where indicated with *)): 6000 nM; IC50 ([1]; Babesia divergens, 72h, asynchronous, n=3 experiments (or 2 where indicated with *)): 10000 nM; IC50 (P. falciparum strain 3D7; Plasmodium falciparum, 3D7, 72h, ring-stage, n=3 experiments (or 2 where indicated with *)): 9000 nM; hemolysis of RBCs, in words (uninfected RBCs [2]; [8]): similarly low levels; PS exposure on RBCs, in words (uninfected RBCs [3]; [8]): similarly low levels; IC50 [4]: 1700 to 20000 nM
3 | COc1ccc2c(c1)c(C1=C(c3c[nH]c4ccccc34)C(=O)NC1=O)cn2CCCN(C)C [Go6983] | 4 | 4000 | 2 | 2 | -7 | 5 | 12 | 2000 | 500 | 2000 | fold lower IC50s against B. divergens than the Plasmodium spp. ([1]; B. divergens vs Plasmodium spp.): at least 3 fold; IC50 [5]: 100 nM
4 | COc1ccc(S(=O)(=O)N(CCO)c2ccccc2CN(C)C/C=C/c2ccc(Cl)cc2)cc1 [KN-93 Phosphate] | – | 5000 | 2 | 2 | -4 | 7 | 16 | 3000 | 6000 | 3900 | IC50 [6]: 6000 to 12000 nM; Phosphatidylserine exposure (%) 72h (uninfected RBCs [3]; 72h, 5x P. falciparum 3D7-IC50, % of RBCs, mean of 2 experiments): 4%
